Source: PubChem BioAssay (NCI)
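Cultured in 96-well plates, cells were exposed to test compound for 48 hours across five concentrations. Definition used: TGI = concentration required for complete inhibition of growth.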

What was measured:
Assay in all cases: NCI tumour cell line growth inhibition, 48 h
[1] = test system: OVCAR-4 ovarian
[2] = test system: HCC-2998 colon
[3] = test system: LOX IMVI melanoma
[4] = test system: U251 CNS
[5] = test system: SF-268 CNS
[6] = test system: A549 NSCLC
[7] = test system: SN12K1 renal
[8] = test system: UO-31 renal
[9] = test system: CCRF-CEM leukemia
[10] = test system: NCI-H460 lung
[11] = test system: OVCAR-5 ovarian
[12] = test system: SF-295 CNS
[13] = test system: SF-539 CNS
[14] = test system: UACC-257 melanoma
[15] = test system: MOLT-4 leukemia
[16] = test system: NCI-H23 lung
[17] = test system: SK-MEL-5 melanoma
[18] = test system: MCF7 breast
[19] = test system: SW-620 colon
[20] = test system: P388 leukemia
[21] = test system: HCT-116 colon
[22] = test system: SK-MEL-28 melanoma
[23] = test system: RXF 393 renal
[24] = test system: CAKI-1 renal
[25] = test system: NCI-H226 lung
[26] = test system: HOP-18 NSCLC
[27] = test system: DLD-1 colon
[28] = test system: DMS 114 small cell lung
[29] = test system: HCT-15 colon
[30] = test system: KM20L2 colon
[31] = test system: COLO 205 colon
[32] = test system: IGROV1 ovarian
[33] = test system: RPMI-8226 leukemia
[34] = test system: OVCAR-8 ovarian
[35] = test system: HOP-92 NSCLC
[36] = test system: HOP-62 NSCLC
[37] = test system: UACC-62 melanoma
[38] = test system: NCI-H522 lung
[39] = test system: SK-OV-3 ovarian
[40] = test system: SNB-75 CNS
[41] = test system: OVCAR-3 ovarian
[42] = test system: HL-60(TB) leukemia
[43] = test system: P388/ADR leukemia
[44] = test system: DMS 273 small cell lung
[45] = test system: NCI/ADR-RES ovarian
[46] = test system: EKVX NSCLC
[47] = test system: M19-MEL melanoma
[48] = test system: XF 498 CNS
[49] = test system: SK-MEL-2 melanoma
[50] = test system: SNB-78 CNS
[51] = test system: KM12 colon
[52] = test system: MALME-3M melanoma
[53] = test system: HT29 colon
[54] = test system: A498 renal
[55] = test system: SNB-19 CNS
[56] = test system: SN12C renal
[57] = test system: K-562 leukemia
[58] = test system: SR leukemia
[59] = test system: LXFL 529 NSCLC
[60] = test system: RXF-631 renal
[61] = test system: M14 melanoma
[62] = test system: TK-10 renal
[63] = test system: ACHN renal

Measured: TGI

CCCCCCCCCOCC(COP(=O)([O-])OCC[N+](C)(C)C)OC (configuration not stated)
not listed: [58] | [59] | [60] | [61] | [62] | [63]
> 100 µM: all other assays above

COc1nc(N)c(NC(C)=O)c(=O)n1C
not listed: [7] | [17] | [18] | [20] | [25] | [36] | [37] | [38] | [39] | [41] | [43] | [45] | [47]
> 100 µM: all other assays above
